21 compounds from patent EP4782445A1, “CDK KINASE INHIBITOR AND USE THEREOF” (Abbisko Therapeutics Co., Ltd., priority 2023, dated 2025) can be followed below.

One test has as its target T1, CDK6/cyclin D3 (Homo sapiens, UniProt Q00534).
T1 construct: purchased Carna
Nature of the test: In vitro biochemical kinase activity assay for CDK6/cyclin D3 (HTRF). The protocol:
III. In Vitro Biochemical Kinase Activity Assay for CDK6/Cyclin D3
The inhibitory effects of the compounds of the present invention on CDK6/cyclin D3 kinase activity were determined using an HTRF assay. The experimental process was as follows: 1. The kinase reaction was carried out in a 384-well plate. 0.02 nM CDK6/cyclin D3 (Carna), 1 mM (or 100 µM) ATP, and 0.3 µM biotin-labeled substrate protein Rb-biotin (Cisbio) were incubated at 30°C for 60 min in a buffer system composed of 5 mM MgCl2, 1 mM DTT, and basal kinase buffer (Cisbio). 2. The detection solution (Cisbio, containing reagents that specifically recognize phosphorylated Rb and Rb-biotin proteins, respectively) was added. The plate was then sealed with a film (to protect from light and volatilization) and incubated at 25°C for 60 min. 3. The plate was transferred to an Envision plate reader to detect FRET signals. (The 665/615 ratio was calculated by reading the emission at 665 nm and 615 nM, respectively.) 4. The IC50 values were determined by analyzing the inhibition at varying compound concentrations using Model 205 in the XLfit software.

In the next test the target is T2, CDK4/cyclin D3 (Homo sapiens, UniProt P11802).
T2 construct: purchased Carna
T2 sequence (P11802 whole entry): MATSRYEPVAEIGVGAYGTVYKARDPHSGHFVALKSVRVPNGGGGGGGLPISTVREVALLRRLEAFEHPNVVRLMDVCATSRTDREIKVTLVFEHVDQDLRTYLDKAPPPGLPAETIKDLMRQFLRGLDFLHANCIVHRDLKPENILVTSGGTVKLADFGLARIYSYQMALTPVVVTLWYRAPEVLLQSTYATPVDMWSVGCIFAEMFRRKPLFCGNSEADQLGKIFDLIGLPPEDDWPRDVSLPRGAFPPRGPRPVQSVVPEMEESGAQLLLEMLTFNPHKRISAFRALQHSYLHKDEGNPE
T2 sequence (P30281 whole entry partner): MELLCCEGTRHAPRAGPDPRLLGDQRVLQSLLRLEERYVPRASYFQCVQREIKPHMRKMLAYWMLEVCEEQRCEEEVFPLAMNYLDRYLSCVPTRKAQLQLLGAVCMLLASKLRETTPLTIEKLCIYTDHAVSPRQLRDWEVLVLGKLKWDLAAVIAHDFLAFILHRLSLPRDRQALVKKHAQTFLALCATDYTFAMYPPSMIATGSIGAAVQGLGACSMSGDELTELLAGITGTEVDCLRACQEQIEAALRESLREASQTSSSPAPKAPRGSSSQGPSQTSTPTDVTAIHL
Nature of the test: In vitro biochemical kinase activity assay for CDK4/cyclin D3 (HTRF). On the procedure:
II. In Vitro Biochemical Kinase Activity Assay for CDK4/Cyclin D3
The inhibitory effects of the compounds of the present invention on CDK4/cyclin D3 kinase activity were determined using an HTRF assay. The experimental process was as follows: • 1. The kinase reaction was carried out in a 384-well plate. 4.9 nM CDK4/cyclin D3 (Carna), 1 mM (or 80 µM) ATP, and 0.3 µM biotin-labeled substrate protein Rb-biotin (Cisbio) were incubated at 30°C for 90 min in a buffer system composed of 50 mM MgCl2, 1 mM DTT, and basal kinase buffer (Cisbio). • 2. The detection solution (Cisbio, containing reagents that specifically recognize phosphorylated Rb and Rb-biotin proteins, respectively) was added. The plate was then sealed with a film (to protect from light and volatilization) and incubated at 25°C for 60 min. • 3. The plate was transferred to an Envision plate reader to detect FRET signals. (The 665/615 ratio was calculated by reading the emission at 665 nm and 615 nM, respectively.) • 4. The IC50 values were determined by analyzing the inhibition at varying compound concentrations using Model 205 in the XLfit software.
In general terms: TR-FRET usually uses a lanthanide donor and a delayed reading to cut background.

[1] abbreviates: data marked with *: 1 mM ATP in Step 1.
[2] abbreviates: unmarked data: 100 µM ATP in Step 1.

T1 sequence (Q00534 whole entry): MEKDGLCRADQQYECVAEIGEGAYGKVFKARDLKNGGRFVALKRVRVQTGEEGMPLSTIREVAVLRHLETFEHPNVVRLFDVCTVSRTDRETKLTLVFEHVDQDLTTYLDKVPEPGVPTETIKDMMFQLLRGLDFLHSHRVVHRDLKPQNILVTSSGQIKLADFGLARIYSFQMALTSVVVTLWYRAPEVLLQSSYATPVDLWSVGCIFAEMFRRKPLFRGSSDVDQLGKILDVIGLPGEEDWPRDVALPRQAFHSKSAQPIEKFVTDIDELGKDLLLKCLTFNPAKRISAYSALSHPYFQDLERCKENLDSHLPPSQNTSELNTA
T1 sequence (P30281 whole entry partner): as the sequence (P30281 whole entry partner) above

For `CC(C)n1c(C#Cc2nc(N[C@@H]3CCOC[C@H]3O)ncc2Cl)cnc1CN1CCC[C@@H](O)C1` [Example 78, (R)-1-((5-((5-chloro-2-(((3 S,4R)-3-hydroxytetrahydro-2H-pyran-4-yl)amino)pyrimidin-4-yl)ethynyl)-1-isopropyl-1H-imidazol-2-yl)methyl)piperidin-3-ol], the IC50 at CDK6/cyclin D3 (setting [1]) amounted to 0.393 µM; on CDK4/cyclin D3 (setting [1]) it was 0.0755 µM.

Consider `Cc1ncc(C#Cc2nc(N[C@@H]3CCOC[C@H]3O)ncc2Cl)n1C(C)C` [Example 79, (3 S,4R)-4-((5-chloro-4-((1-isopropyl-2-methyl-1H-imidazol-5-yl)ethynyl)pyrimidin-2-yl)amino)tetrahydro-2H-pyran-3-ol], for which the figures for the IC50 against CDK6/cyclin D3 (setting [1]) and on CDK4/cyclin D3 (setting [1]) were 0.179 µM and 0.0172 µM, respectively.

For `CCN1CC2(C1)CN(c1ccc(Nc3ncc(Cl)c(C#Cc4cnc(C)n4C(C)C)n3)nc1)C2` [Example 80, 5-chloro-N-(5-(6-ethyl-2,6-diazaspiro[3.3]heptan-2-yl)pyridin-2-yl)-4-((1-isopropyl-2-methyl-1H-imidazol-5-yl)ethynyl)pyrimidin-2-amine], the IC50 at CDK6/cyclin D3 (setting [1]) amounted to 0.012 µM; against CDK4/cyclin D3 (setting [1]), 0.00265 µM.

For the compound `CCN1CC2(C1)CN(c1ccc(Nc3ncc(F)c(C#Cc4cnc(C)n4C(C)C)n3)nc1)C2` [Example 81, N-(5-(6-ethyl-2,6-diazaspiro[3.3]heptan-2-yl)pyridin-2-yl)-5-fluoro-4-((1-isopropyl-2-methyl-1H-imidazol-5-yl)ethynyl)pyrimidin-2-amine], the IC50 was found to be 0.0591 µM against CDK6/cyclin D3 (setting [1]) and 0.00986 µM against CDK4/cyclin D3 (setting [1]).

As for `CC(C)c1c(C#Cc2nc(Nc3ccc(N4CC5(CN(CCF)C5)C4)cn3)ncc2F)cnn1C` [Example 82, 5-Fluoro-N-(5-(6-(2-fluoroethyl)-2,6-diazaspiro[3.3]heptan-2-yl)pyridin-2-yl)-4-((5-isopropyl-1-methyl-1H-pyrazol-4-yl)ethynyl)pyrimidin-2-amine], the IC50 on CDK6/cyclin D3 (setting [1]) was 0.0295 µM; against CDK4/cyclin D3 (setting [1]), 0.00325 µM.

Take `CCN1CCN(Cc2ccc(Nc3ncc(Cl)c(C#Cc4cnc(C(C)(C)O)n4C(C)C)n3)nc2F)CC1` [Example 84, 2-(5-((5-chloro-2-((5-((4-ethylpiperazin-1-yl)methyl)-6-fluoropyridin-2-yl)amino)pyrimidin-4-yl)ethynyl)-1-isopropyl-1H-imidazol-2-yl)propan-2-ol]: the IC50 was determined as 0.0489 µM against CDK6/cyclin D3 (setting [1]) and 0.00744 µM against CDK4/cyclin D3 (setting [1]).

Consider `CC(C)n1c(C#Cc2nc(N[C@@H]3CCOC[C@H]3C)ncc2Cl)cnc1C(C)(C)O` [Example 86, 2-(5-((5-chloro-2-(((3 S,4R)-3-methyltetrahydro-2H-pyran-4-yl)amino)pyrimidin-4-yl)ethynyl)-1-isopropyl-1H-imidazol-2-yl)propan-2-ol], for which the figures for the IC50 on CDK6/cyclin D3 (setting [2]) and against CDK4/cyclin D3 (unmarked data: 80 µM ATP in Step 1) were 1.97 µM and 0.48 µM, respectively.

Consider `CC(=O)N[C@@H]1COCC[C@H]1Nc1ncc(Cl)c(C#Cc2cnc(C(C)(C)O)n2C(C)C)n1` [Example 87, N-((3 S,4R)-4-((5-chloro-4-((2-(2-hydroxypropan-2-yl)-1-isopropyl-1H-imidazol-5-yl)ethynyl)pyrimidin-2-yl)amino)tetrahydro-2H-pyran-3-yl)acetamide], for which the results for the IC50 against CDK6/cyclin D3 (setting [1]) and at CDK4/cyclin D3 (setting [1]) were 9.36 µM and 3.97 µM, respectively.

As for `CC(C)n1c(C#Cc2nc(N[C@@H]3CCOC[C@H]3O)ncc2Br)cnc1C(C)(C)O` [Example 88, (3S,4R)-4-((5-bromo-4-((2-(2-hydroxypropan-2-yl)-1-isopropyl-1H-imidazol-5-yl)ethynyl)pyrimidin-2-yl)amino)tetrahydro-2H-pyran-3-ol], the IC50 was 0.0511 µM on CDK6/cyclin D3 (setting [2]) and 0.0126 µM against CDK4/cyclin D3 (setting [1]).

For `CC(=O)N1CC2(C1)CN(c1ccc(Nc3ncc(F)c(C#Cc4cnn(C)c4C(C)C)n3)nc1)C2` [Example 89, 1-(6-(6-((5-fluoro-4-((5-isopropyl-1-methyl-1H-pyrazol-4-yl)ethynyl)pyrimidin-2-yl)amino)pyridin-3-yl)-2,6-diazaspiro[3.3]heptan-2-yl)ethan-1-one], the IC50 on CDK6/cyclin D3 (setting [1]) is 0.0449 µM; against CDK4/cyclin D3 (setting [1]), 0.0162 µM.

With `CC(C)n1c(C#Cc2nc(N[C@@H]3CCOC[C@H]3O)ncc2Cl)cnc1C1(O)CCCC1` [Example 90, (3 S,4R)-4-((5-chloro-4-((2-(1-hydroxycyclopentyl)-1-isopropyl-1H-imidazol-5-yl)ethynyl)pyrimidin-2-yl)amino)tetrahydro-2H-pyran-3-ol], the IC50 against CDK6/cyclin D3 (setting [1]) came out at 0.253 µM; against CDK4/cyclin D3 (setting [1]), 0.023 µM.

Regarding `CC(C)n1c(C#Cc2nc(N[C@@H]3CCOC[C@H]3F)ncc2Cl)cnc1C(C)(C)O` [Example 91, 2-(5-((5-chloro-2-(((3 S,4R)-3-fluorotetrahydro-2H-pyran-4-yl)amino)pyrimidin-4-yl)ethynyl)-1-isopropyl-1H-imidazol-2-yl)propan-2-ol], the IC50 against CDK6/cyclin D3 (setting [1]) was 0.333 µM; at CDK4/cyclin D3 (setting [1]), 0.0882 µM.

In the case of `COC1COCC[C@H]1Nc1ncc(Cl)c(C#Cc2cnc(C(C)(C)O)n2C(C)C)n1` (stereo partly drawn) [Example 92, 2-(5-((5-chloro-2-(((4R)-3-methoxytetrahydro-2H-pyran-4-yl)amino)pyrimidin-4-yl)ethynyl)-1-isopropyl-1H-imidazol-2-yl)propan-2-ol], the IC50 against CDK6/cyclin D3 (setting [1]) came out at 0.52 µM; at CDK4/cyclin D3 (setting [1]), 0.0997 µM.

On to `CC(C)c1c(C#Cc2nc(Nc3ccc(N4CC5(CN(C)C5)C4)cn3)ncc2F)cnn1C` [Example 93, 5-fluoro-4-((5-isopropyl-1-methyl-1H-pyrazol-4-yl)ethynyl)-N-(5-(6-methyl-2,6-diazaspiro[3 .3]heptan-2-yl)pyridin-2-yl)pyrimidin-2-amine], for which the values for the IC50 on CDK6/cyclin D3 (setting [1]) and on CDK4/cyclin D3 (setting [1]) were 0.0337 µM and 0.00728 µM, respectively.

`CC(C)n1c(C#Cc2nc(Nc3ccc(N4CCN(C)CC4=O)cn3)ncc2Cl)cnc1C(C)(C)O` [Example 94, 1-(6-((5-chloro-4-((2-(2-hydroxypropan-2-yl)-1-isopropyl-1H-imidazol-5-yl)ethynyl)pyrimidin-2-yl)amino)pyridin-3-yl)-4-methylpiperazin-2-one]: the IC50 against CDK6/cyclin D3 (setting [1]) was 0.0176 µM; against CDK4/cyclin D3 (setting [1]), 0.00553 µM.

As for `CC(C)n1c(C#Cc2nc(N[C@@H]3CCOC[C@H]3O)ncc2F)cnc1C(C)(C)O` [Example 95, (3 S,4R)-4-((5-fluoro-4-((2-(2-hydroxypropan-2-yl)-1-isopropyl-1H-imidazol-5-yl)ethynyl)pyrimidin-2-yl)amino)tetrahydro-2H-pyran-3-ol], the IC50 amounted to 0.829 µM on CDK6/cyclin D3 (setting [1]) and 0.117 µM against CDK4/cyclin D3 (setting [1]).

As for `CC(C)n1c(C#Cc2nc(N[C@@H]3CCOC[C@H]3O)ncc2Cl)cnc1CN1CCC[C@@H](C#N)C1` [Example 98, (R)-1-((5-((5-chloro-2-(((3 S,4R)-3-hydroxytetrahydro-2H-pyran-4-yl)amino)pyrimidin-4-yl)ethynyl)-1-isopropyl-1H-imidazol-2-yl)methyl)piperidin-3-carbonitrile], the results for the IC50 against CDK6/cyclin D3 (setting [1]) and at CDK4/cyclin D3 (setting [1]) were 0.198 µM and 0.00808 µM, respectively.

Take `CC(C)n1c(C#Cc2nc(N[C@H]3CC[C@H](NS(C)(=O)=O)CC3)ncc2Cl)cnc1C(C)(C)O` [Example 99, N-((1R,4R)-4-((5-chloro-4-((2-(2-hydroxypropan-2-yl)-1-isopropyl-1H-imidazol-5-yl)ethynyl)pyrimidin-2-yl)amino)cyclohexyl)methanesulfonamide]: the IC50 stood at 0.19 µM against CDK6/cyclin D3 (setting [1]) and 0.0281 µM against CDK4/cyclin D3 (setting [1]).

With `CC(C)n1c(C#Cc2nc(Nc3ccc(C(=O)N(C)C)cn3)ncc2Cl)cnc1C(C)(C)O` [Example 100, 6-((5-chloro-4-((2-(2-hydroxypropan-2-yl)-1-isopropyl-1H-imidazol-5-yl)ethynyl)pyrimidin-2-yl)amino)-N,N-dimethylnicotinamide], the IC50 against CDK6/cyclin D3 (setting [1]) was 0.0259 µM; against CDK4/cyclin D3 (setting [1]) it was 0.00669 µM.

With `CC(C)n1c(C#Cc2nc(N[C@@H]3CCOC[C@H]3C#N)ncc2Cl)cnc1C(C)(C)O` [Example 101, (3R,4R)-4-((5-chloro-4-((2-(2-hydroxypropan-2-yl)-1-isopropyl-1H-imidazol-5-yl)ethynyl)pyrimidin-2-yl)amino)tetrahydro-2H-pyran-3-carbonitrile], the IC50 on CDK6/cyclin D3 (setting [1]) worked out at 4.77 µM; on CDK4/cyclin D3 (setting [1]), 0.786 µM.

With `CC(C)n1c(C#Cc2nc(N[C@@H]3CCOC[C@H]3O)ncc2Cl)cnc1CN1CCC[C@H](C#N)C1` [Example 103, (S)-1-((5-((5-chloro-2-(((3 S,4R)-3-hydroxytetrahydro-2H-pyran-4-yl)amino)pyrimidin-4-yl)ethynyl)-1-isopropyl-1H-imidazol-2-yl)methyl)piperidin-3-carbonitrile], the IC50 against CDK6/cyclin D3 (setting [1]) amounted to 0.256 µM; on CDK4/cyclin D3 (setting [1]), 0.0119 µM.

A word on the IC50: it is the point on the concentration scale where inhibition reaches its midpoint.
